Key:
MDA-MB-231 cells = system: MDA-MB-231 cells; design: method as in PMID 28213701; conditions: MDA-MB-231, 24 h incubation; read-out: IC50 reported in the literature; cited from earlier work
MCF-10A cells = assay: 1H NMR metabolomics of polar (aqueous) cell extracts; type: cell-based, human; conditions: UA 10µM
Procedure: MDA-MB-231 and MCF-10A cells were seeded in 10-cm-diameter Petri dishes at a density of 6 × 10^5 cells/mL (10 mL per dish) and cultured for 24 h at 37 °C. […] Vehicle solvent control cells received DMSO (0.10% v/v). Samples were collected immediately after 48 h incubation or, to assess cellular recovery, medium was replaced with fresh growth medium (without TAs), and cells were incubated for additional 24 h before collection (48 + 24 h samples). Four independent assays were performed.
After incubation, culture medium was collected and centrifuged (1000× g, 5 min) and the supernatant stored at −80 °C until analysis. Culture medium without cells was placed under the same conditions and collected. Cell extraction was performed as described by Carrola et al.. Briefly, cells were washed four times with PBS and extracted with a mixture of methanol:chloroform:water (1:1:0.7). The resulting polar and organic phases were collected and then dried under vacuum or under a stream of nitrogen gas, respectively. All samples were stored at −80 °C and, at the time of analysis, dried polar extracts were reconstituted in 600 µL of deuterated phosphate buffer (100 mM, pH 7.4) containing 0.1 mM TSP-d4, while organic extracts were reconstituted in deuterated chloroform containing 0.03% TMS. Regarding medium samples, 540 μL were mixed with 60 μL of D2O containing 0.25% TSP-d4. Prior to analysis, 550 μL of each sample were transferred to 5 mm NMR tubes.
^1H NMR spectra of all samples were acquired on a Bruker Avance III HD 500 NMR spectrometer (University of Aveiro, Portuguese NMR Network) operating at 500.13 MHz for ^1H observation equipped with a 5 mm TXI probe. Standard 1D spectra (Bruker pulse programs ‘noesypr1d’, with water suppression, for medium samples and aqueous extracts, and ‘zg’ for organic extracts) were recorded with a 7002.8 Hz spectral width, 32 k data points, a 2 s relaxation delay and 512 scans. Spectral processing comprised exponential multiplication with 0.3 Hz line broadening, zero filling to 64 k data points, manual phasing, baseline correction, and chemical shift calibration to the TSP or TMS signal at 0 ppm. 2D ^1H-^1H total correlation (TOCSY) spectra, ^1H-^13C heteronuclear single quantum correlation (HSQC) spectra and J-resolved spectra were also registered for selected samples to assist spectral assignment. Metabolites were identified with the support of 2D spectra and the spectral reference databases BBIOREFCODE-2-0-0 (Bruker Biospin, Rheinstetten, Germany) and HMDB [28]. Selected signals were then integrated using the AmixViewer software […] (version 3.9.14, Bruker BioSpin, Rheinstetten, Germany) and normalized by the total spectral area. The magnitude of each metabolite change was assessed through the percentage of variation (and its respective error) in exposed samples relatively to controls, and through the effect size (ES) adjusted for small sample numbers (and respective standard error). Metabolite variations with absolute ES greater than 0.8 were expressed in a heatmap, colored as a function of the percentage of variation, employing the R statistical software.

C[C@H]1[C@H](C)CC[C@]2(C(=O)O)CC[C@]3(C)C(=CC[C@@H]4[C@@]5(C)CC[C@H](O)C(C)(C)[C@@H]5CC[C@]43C)[C@H]12 [UA, ursolic acid]
IC50 (MDA-MB-231 cells): 22.9 µM | 1-MethyInicotinamide %var (MCF-10A cells; 48h): 38.46% | 3-Hydroxyisobutyrate %var (MCF-10A cells; 48h): -23.71% | ATP %var (MCF-10A cells; 48h): 41.52% | Acetate %var (MCF-10A cells; 48h): 0% | Ala %var (MCF-10A cells; 48h): 44.32% | Asp %var (MCF-10A cells; 48h): -38.30% | Choline %var (MCF-10A cells; 48h): 31.99% | Citrate %var (MCF-10A cells; 48h): -36.91% | Cr %var (MCF-10A cells; 48h): -16.76% | Dimethylamine %var (MCF-10A cells; 48h): -53.26% | Formate %var (MCF-10A cells; 48h): 0% | Fumarate %var (MCF-10A cells; 48h): 0% | GPC %var (MCF-10A cells; 48h): 108.51% | GSH %var (MCF-10A cells; 48h): -30.60% | Gln %var (MCF-10A cells; 48h): 0% | Glu %var (MCF-10A cells; 48h): -21.17% | Glucose %var (MCF-10A cells; 48h): -71.26% | Glucose-1-phosphate %var (MCF-10A cells; 48h): -75.94% | Gly %var (MCF-10A cells; 48h): 40.31% | His %var (MCF-10A cells; 48h): 0% | Ile %var (MCF-10A cells; 48h): 211.80% | Lactate %var (MCF-10A cells; 48h): 0% | Leu %var (MCF-10A cells; 48h): 389.84% | NADH %var (MCF-10A cells; 48h): 34.09% | PC %var (MCF-10A cells; 48h): -26.30% | PCr %var (MCF-10A cells; 48h): 34.32% | Phe %var (MCF-10A cells; 48h): 22.52% | Pro %var (MCF-10A cells; 48h): 87.39% | Tyr %var (MCF-10A cells; 48h): 0% | UDP-GalNAc %var (MCF-10A cells; 48h): 62.26% | UDP-GlcNAc %var (MCF-10A cells; 48h): 60.69% | UDP-Glucose %var (MCF-10A cells; 48h): -19.78% | Val %var (MCF-10A cells; 48h): 151.36% | myo -Lno %var (MCF-10A cells; 48h): -13.14% | 1-MethyInicotinamide %var (MCF-10A cells; 48h+24h): 22.91% | 3-Hydroxyisobutyrate %var (MCF-10A cells; 48h+24h): -22.77% | ATP %var (MCF-10A cells; 48h+24h): 0% | Acetate %var (MCF-10A cells; 48h+24h): 0% | Ala %var (MCF-10A cells; 48h+24h): 0% | Asp %var (MCF-10A cells; 48h+24h): -26.58% | Choline %var (MCF-10A cells; 48h+24h): 0% | Citrate %var (MCF-10A cells; 48h+24h): -18.09% | Cr %var (MCF-10A cells; 48h+24h): 0% | Dimethylamine %var (MCF-10A cells; 48h+24h): -15.34% | Formate %var (MCF-10A cells; 48h+24h): 0% | Fumarate %var (MCF-10A cells; 48h+24h): -22.45% | GPC %var (MCF-10A cells; 48h+24h): -32.45% | GSH %var (MCF-10A cells; 48h+24h): -27.29% | Gln %var (MCF-10A cells; 48h+24h): 16.14% | Glu %var (MCF-10A cells; 48h+24h): 0% | Glucose %var (MCF-10A cells; 48h+24h): -31.96% | Glucose-1-phosphate %var (MCF-10A cells; 48h+24h): 0% | Gly %var (MCF-10A cells; 48h+24h): 24.70% | His %var (MCF-10A cells; 48h+24h): 0% | Ile %var (MCF-10A cells; 48h+24h): 58.71% | Lactate %var (MCF-10A cells; 48h+24h): 0% | Leu %var (MCF-10A cells; 48h+24h): 82.57% | NADH %var (MCF-10A cells; 48h+24h): 20.35% | PC %var (MCF-10A cells; 48h+24h): -38.35% | PCr %var (MCF-10A cells; 48h+24h): 24.82% | Phe %var (MCF-10A cells; 48h+24h): 16.59% | Pro %var (MCF-10A cells; 48h+24h): 49.66% | Tyr %var (MCF-10A cells; 48h+24h): 13.28% | UDP-GalNAc %var (MCF-10A cells; 48h+24h): 0% | UDP-GlcNAc %var (MCF-10A cells; 48h+24h): 0% | UDP-Glucose %var (MCF-10A cells; 48h+24h): 0% | Val %var (MCF-10A cells; 48h+24h): 47.98% | myo -Lno %var (MCF-10A cells; 48h+24h): 0%
